Values of other authors, collected in paper PMC3014826 (The Biochemical journal, 2009).

Tested on: A6 TCR
Settings: ITC, 37 °C; ref Armstrong et al. (2008)

HTLV-1 Tax11-19 peptide [Native Tax]
ΔG°: -8.59 ± 0.04 kcal/mol | ΔH°: -7.1 ± 0.1 kcal/mol | ΔS°: 4.7 ± 0.4 cal/mol/K
